This passage reports KD results from paper PMC9976898 (2022).

The test system of the assay is F7-40 (DNA, aptamer) CTTACGACCACCATGGGAATCGGGTGGCTTGGAGGTGCGT
Kind of assay: ITC. The note with it: 20 mM NaCl, 0.5 mM MgCl2; 10 mM Tris-HCl pH 7.4, 1% methanol, 23 °C.

SMILES strings stand for the structures.

One may read the KD as a measure of binding affinity in units of concentration. Low readings indicate tighter binding, high ones weaker binding. Molecule `C=C[C@H]1CN2CC[C@H]1C[C@H]2[C@H](O)c1ccnc2ccc(OC)cc12` yielded a KD of 62.1 ± 4.9 µM.
